Experiments:
Format in all cases: cell-based
MIP1α mRNA = test: RT-PCR of MIP1α mRNA in monocytes; settings: human monocytes; for amplification of band ascribed to MIP1α mRNA, stimulant alone: LPS or TPA alone, 4 hours, RT-PCR
Protocol: (§1) Four-hundred milliliters of blood was collected from a human normal individual donor. The collected blood was diluted 2-folds with PBS(−), overlaid on Ficoll-paque (manufactured by Pharmacia), and centrifuged at 500×g for 20 minutes. The peripheral blood mononuclear cells (PBMCs) in the intermediate layer was collected with a pipette, and washed with RPMI 1640 medium (manufactured by Bio Whittaker). The collected PBMCs was suspended in a storage solution of 90% FCS (manufactured by JRH Biosciences)/10% dimethyl sulfoxide, and stored in liquid nitrogen. During the experiment, these stored PBMCs were rapidly melted in water bath at 37° C., and washed with RPMI 1640 medium containing 10 μg/ml Dnase (manufactured by Calbiochem). Thereafter, the number of living cells was calculated by trypan blue staining method, and subjected to each experiment.
(§2) PBMCs were suspended in RPMI 1640 medium containing 5% human serum of blood type-AB, 0.1 mM nonessential amino acid, 1 mM sodium pyruvate, 2 mM L-glutamine (hereinabove manufactured by Bio Whittaker), 10 mM HEPES (manufactured by nakalai tesque), and 1% streptomycin-penicillin (manufactured by Gibco BRL) (hereinafter simply referred to as “5HRPMI medium”) so as to have a concentration of 4×10^6 cells/ml. Thereafter, the suspension was spread on a 6-well cell culture plate (manufactured by Falcon) in a volume of 3 ml/well, and the cells were incubated in a wet-type incubator at 37° C. and 5% CO2 for 1.5 hours. After 1.5 hours, the non-adherent cells were removed by suction, and each well was washed with RPMI 1640 medium, and 2 ml of the 5HRPMI medium was added to the wells, to give monocytes.
To the monocytes obtained above was added in each well 8 μl of an aqueous DGE solution, or 8 μl of water as a control, and the cells were incubated in a wet-type incubator at 37° C. and 5% CO2 for 5 hours. Thereafter, with addition of 2 μl of a 1 μg/ml aqueous LPS solution or 2 μl of a 25 μM TPA dimethyl sulfoxide solution to each well, or with addition of neither of these substances thereto, the cells were cultured for additional 4 hours. Thereafter, RNA was prepared from each cell in accordance with the description of the kit using RNeasy Mini Kit (manufactured by QIAGEN, 74104). The group with addition of water alone or the aqueous DGE solution alone to the cells was set as a negative control, and the group with addition of water and the aqueous LPS solution or the aqueous TPA solution to the cells was set as a positive control. […]

[1] = tested on: macrophage inflammatory protein-2-α (MIP2α); test: RT-PCR expression level of MIP2α gene in monocytes; settings: human monocytes, 35 PCR cycles
Protocol: as §1, §2
(§3) To the monocytes obtained above was added in each well 8 μl of an aqueous DGE solution, or 8 μl of water as a control, and the cells were incubated in a wet-type incubator at 37° C. and 5% CO2 for 5 hours. Thereafter, with addition of 2 μl of a 1 μg/ml aqueous LPS solution or 2 μl of a 25 μM TPA dimethyl sulfoxide solution to each well, or with addition of neither of these substances thereto, the cells were cultured for additional 4 hours. Thereafter, RNA was prepared from each cell in accordance with the description of the kit using RNeasy Mini Kit (manufactured by QIAGEN, 74104). The group with addition of water alone or the aqueous DGE solution alone to the cells was set as a negative control, and the group with addition of water and the aqueous LPS solution or the aqueous TPA solution to the cells was set as a positive control.
(§4) A liquid mixture having a total volume of 60 μl of 0.5 μg of RNA prepared above, 10 mM Tris-HCl (pH 8.3), 50 mM KCl, 5 mM MgCl2, 1 mM dNTP mixtures, 150 pmol of Random 6 mers, 60 U Ribonuclease Inhibitor (manufactured by Takara Shuzo Co., Ltd., 2310A), and 15 U Reverse Transcriptase XL (AMV) (manufactured by Takara Shuzo Co., Ltd., 2620A) were incubated at 30° C. for 10 minutes and thereafter at 42° C. for 1 hour using a thermal cycler (GeneAmp PCR System 9600, manufactured by Applied Biosystems), and the mixture was heated at 99° C. for 5 minutes to deactivate the enzyme, to give cDNA.
(§5) Oligonucleotide primers for reaction of PCR were designed based on mRNA nucleotide sequence of each gene listed in the following tables, and synthesized in the same manner as above. In Tables 4 and 5, each gene evaluated in this Example, GenBank Accession NO, the name of oligonucleotide primers and SEQ ID NOs of the primers in Sequence Listing were listed. […]

[2] = tested on: regulator of G-protein signaling-2 (RGS2); test: RT-PCR expression level of RGS2 gene in monocytes; settings: human monocytes, 35 PCR cycles
Protocol: as §1, §2, §3, §4, §5

[3] = tested on: signal peptidase complex (18 kDa) (SPC18); test: RT-PCR expression level of SPC18 gene in monocytes; settings: human monocytes, 30 PCR cycles
Protocol: as §1, §2, §3, §4, §5

interleukin-6 (IL-6) = test: RT-PCR expression level of IL-6 gene in monocytes; settings: human monocytes, 30 PCR cycles
Protocol: as §1, §2, §3, §4, §5

[4] = tested on: GABA(A) receptor-associated protein (GABArp); test: RT-PCR expression level of GABArp gene in monocytes; settings: human monocytes, 30 PCR cycles
Protocol: as §1, §2, §3, §4, §5

[5] = tested on: growth regulated protein-1 (Gro1); test: RT-PCR expression level of Gro1 gene in monocytes; settings: human monocytes, 30 PCR cycles
Protocol: as §1, §2, §3, §4, §5

[6] = tested on: adenosine A2a receptor (ADORA2A); test: RT-PCR expression level of ADORA2A gene in monocytes; settings: human monocytes, 35 PCR cycles
Protocol: as §1, §2, §3, §4, §5

[7] = tested on: interferon-induced 17-kDa/15-kDa protein (IFNp15/p17); test: RT-PCR expression level of IFNp15/p17 gene in monocytes; settings: human monocytes, 30 PCR cycles
Protocol: as §1, §2, §3, §4, §5

interleukin-1β (IL-1β) = test: RT-PCR expression level of IL-1β gene in monocytes; settings: human monocytes, 30 PCR cycles
Protocol: as §1, §2, §3, §4, §5

[8] = substance added alone, Con. (water) +/−
[9] = substance added alone, Con. (water) +
[10] = substance added alone, Con. (water) −
[11] = T + D: DGE and TPA, TPA alone +
[12] = L + D: DGE and LPS, LPS alone +/−
[13] = L + D: DGE and LPS, LPS alone +++
[14] = T + D: DGE and TPA, TPA alone ++

Row | Compound | amplification of band ascribed to MIP1α mRNA, stimulant alone (MIP1α mRNA) | expression level of MIP2α gene [1, 8] | expression level of RGS2 gene [2, 8] | expression level of SPC18 gene [3, 9] | expression level of IL-6 gene (interleukin-6 (IL-6); [10]) | expression level of GABArp gene [4, 9] | expression level of Gro1 gene [5, 9] | expression level of ADORA2A gene [6, 9] | expression level of IFNp15/p17 gene [7, 9] | expression level of IL-1β gene (interleukin-1β (IL-1β); [9]) | other results
1 | lipopolysaccharide [LPS, reference compound] | induction | + | − | +/− | +++ | +/− | +++ | +++ | +++ | +++ | 
2 | O=C1C=CC(CO)OC1O [DGE, L-glycero-1,5-epoxy-1αβ,6-dihydroxy-cis-hex-3-en-2-one] |  | +/− | +/− | + | − | + | + | +/− | + | + | induction of MIP1α mRNA by LPS, effect of DGE (MIP1α mRNA; DGE 5 hours, then LPS 4 hours, RT-PCR band): inhibited; induction of MIP1α mRNA by TPA, effect of DGE (MIP1α mRNA; DGE 5 hours, then TPA 4 hours, RT-PCR band): inhibited; expression level of MIP2α gene ([1]; L + D: DGE and LPS, LPS alone +): +/−; expression level of MIP2α gene [1, 11]: +/−; expression level of RGS2 gene ([2]; L + D: DGE and LPS, LPS alone −): +/−; expression level of RGS2 gene ([2]; T + D: DGE and TPA, TPA alone +/−): +/−; expression level of SPC18 gene [3, 12]: +; expression level of SPC18 gene [3, 11]: +; expression level of IL-6 gene (interleukin-6 (IL-6); [13]): −; expression level of IL-6 gene (interleukin-6 (IL-6); [11]): −; expression level of GABArp gene [4, 12]: +; expression level of GABArp gene [4, 11]: +; expression level of Gro1 gene [5, 13]: +; expression level of Gro1 gene [5, 14]: +; expression level of ADORA2A gene [6, 13]: −; expression level of ADORA2A gene [6, 11]: −; expression level of IFNp15/p17 gene [7, 13]: +/−; expression level of IFNp15/p17 gene [7, 11]: +/−; expression level of IL-1β gene (interleukin-1β (IL-1β); [13]): +; expression level of IL-1β gene (interleukin-1β (IL-1β); [14]): +
3 | 12-o-tetradecanoylphorbol 13-acetate [TPA, reference compound] | induction | + | +/− | + | + | + | ++ | + | + | ++ | 
